In publication PMC5218472 (PLoS Biology, 2017):
Residues, ends and D or L forms follow the SMILES beside them. *: point of attachment. X1 = CC(=O)N[C@@H]1[C@@H](O)[C@H](O[C@@H]2O[C@H](CO)[C@@H](O[C@@H]3O[C@H](CO[C@H]4O[C@H](CO)[C@@H](O)[C@H](O)[C@@H]4O[C@@H]4O[C@H](CO)[C@@H](O[C@@H]5O[C@H](CO)[C@H](O)[C@H](O)[C@H]5O)[C@H](O)[C@H]4NC(C)=O)[C@@H](O)[C@H](O[C@H]4O[C@H](CO)[C@@H](O)[C@H](O)[C@@H]4O[C@@H]4O[C@H](CO)[C@@H](O[C@@H]5O[C@H](CO)[C@H](O)[C@H](O)[C@H]5O)[C@H](O)[C@H]4NC(C)=O)[C@@H]3O)[C@H](O)[C@H]2NC(C)=O)[C@@H](CO)O[C@H]1N*; αGalNAc = CC(=O)N[C@@H]1[C@@H](O)[C@@H](O)[C@@H](CO)O[C@@H]1*

Experiments:
[1] = target: T1, recombinant catalytic domain of ADAM17 (Homo sapiens, UniProt P78536); test: In vitro cleavage assay of IL-6R (glyco)peptides with recombinant ADAM17; details: 50 μM peptide, 25 mM Hepes pH 9.0, 16 h, 37°C, RP chromatography
T1 construct: catalytic domain (aa Pro-18 to Val-477) of ADAM17; purchased Enzo Life Sciences GmbH (Lörrach, Germany)
Protocol: (§1) Fig 7 The N- and O-glycosylated sequon adjacent to the cleavage site is of minor importance for IL-6R cleavage. (A) Amino-acid sequence of the two unglycosylated peptides 1(QD) and 2(QA). Peptides were incubated either with or without recombinant ADAM17 for 16 h at 37°C, and the amount of cleaved peptide was analyzed by reversed-phase (RP) chromatography. (B) Amino-acid sequence of the two glycopeptides 3(QD) and 4(QA), which have a GlcNAc attached to the amino-acid residue corresponding to Asn-350 of the IL-6R. Cleavage was determined as described in panel (A). (C) Amino-acid sequence of the two glycopeptides 5(QD) and 6(QA), which have a biantennary N-glycan attached to the amino-acid residue corresponding to Asn-350 of the IL-6R. Cleavage was determined as described in panel (A). (D) Amino-acid sequence of the two glycopeptides 7(QD) and 8(QA), which have a GalNAc attached to the amino-acid residue corresponding toThr-352 of the IL-6R. Cleavage was determined as described in panel (A). (E) Amino-acid sequence of the two glycopeptides 9(QD) and 10(QA), which have a biantennary N-glycan attached to the amino-acid residue corresponding to Asn-350 and a GalNAc attached to the amino-acid residue corresponding toThr-352 of the IL-6R. Cleavage was determined as described in panel (A). All data shown are the mean ± SD from three independent experiments (*p < 0.05, **p < 0.01, ***p < 0.001, compared to the untreated peptide; ^§p < 0.05, compared to the cleaved nonglycosylated peptide).
(§2) Two 1.5 ml reaction tubes were filled with 50 μl peptide (50 μM) solved in 25 mM Hepes (pH 9.0), and 0.5 μl of the recombinant catalytic domain of ADAM17 was added to one of the reaction tubes, whereas the other sample remained untreated. All samples were incubated for 16 h at 37°C. Afterwards, 1,150 μl 0.1% TFA was added to each sample, and the peptides were separated on a reverse phase chromatography column (Multo High Bio-200-C18) from Chromatographie Service (Langerwehe, Germany) using a linear gradient elution with a binary solvent system and a flow rate of 1 ml/min. Solvent A consisted of 0.1% TFA, and solvent B consisted of 100% ACN. After peak integration, peak areas for cleaved and noncleaved peptides were determined.

[2] = as above; details: human, isolated enzyme; 50 μM peptide, 25 mM Hepes pH 9.0, recombinant catalytic domain of ADAM17, 16 h, 37°C, reverse phase C18 chromatography, peak areas; mean of 3 independent experiments; read-out: intact peptide after incubation with ADAM17 (untreated peptide = 100), mean
Protocol: as §1, §2

[3] = test system: ADAM10 / ADAM17; test: PMA-induced shedding of IL-6R-5N in HEK293 cells after pretreatment with inhibitors GI or GW, ELISA (Fig 9D); assay type: cell-based, human; details: HEK293, IL-6R-5N; PMA stimulation, GI or GW given as pretreatment before PMA; mean of n = 3
Protocol: (§3) Fig 9 An IL-6R devoid of all N-glycans is defective in ADAM17-mediated proteolysis. (A) PMA-mediated ectodomain shedding of IL-6R-5N with a stably transduced Ba/F3-gp130 cell line. Data shown are the mean ± SD from three independent experiments compared to wild-type IL-6R. (B) HEK293 cells were transiently transfected with a cDNA encoding wild-type IL-6R. Cells were pretreated with the ADAM10-specific inhibitor GI or the combined ADAM10/ADAM17-specific inhibitor GW for 30 min and then stimulated with 100 nM PMA for 2 h as indicated. The amount of sIL-6R in the cell supernatant was determined by ELISA. One out of three experiments with similar outcomes is shown (mean ± SD, n = 3). (C) The experiment was performed as described under (B), but sIL-6R was precipitated from cell supernatant and analyzed by western blot. Furthermore, the cells were lysed, and IL-6R expression in the lysates was also determined by western blot. β-actin served as loading control. […] (D, E) The experiment was performed as described in […], but HEK293 cells were transiently transfected with a cDNA encoding IL-6R-5N. nd, not detected. (F) Cell-surface expression of the IL-6R-5N variant on transiently transfected HEK293 cells analyzed via flow cytometry (black histogram). […] The expression of all proteins (input) and the interaction of the IL-6R variants with MPD17-CANDIS were analyzed via western blot. […]

[4] = test system: ADAM10 / ADAM17; test: PMA-induced shedding of wild-type IL-6R in HEK293 cells after pretreatment with inhibitors GI or GW, ELISA (Fig 9B); assay type: cell-based, human; details: HEK293, wild-type IL-6R; PMA stimulation, GI or GW given as pretreatment before PMA; mean of n = 3
Protocol: as §3

[5] = test system: Ba/F3-gp130 cells; test: Proliferation of Ba/F3-gp130 cells with 10 ng/ml IL-6 plus recombinant sIL-6R or ds-sIL-6R (IL-6 trans-signaling), Cell Titer Blue; assay type: cell-based; details: 0-100 ng/ml with 10 ng/ml IL-6, 48 h
Description: Fig 1 The majority of sIL-6R in human serum is not generated by alternative mRNA splicing. (A) Multiple sequence alignment of amino acids Met-310 to Ala-370 of the full-length human IL-6R with the sIL-6R (Met-310 to Gln-357) and amino acids Met-310 to Leu-365 of the differentially spliced sIL-6R (ds-sIL-6R). The ten unique C-terminal amino-acid residues of the […], which represent the epitope against which the antibody ds6R was raised, are colored in green. (B, C) Proliferation assay of Ba/F3-gp130 cells in response to 10 ng/ml IL-6 and increasing amounts (0–100 ng/ml) of either (B) recombinant sIL-6R or (C) recombinant ds-sIL-6R. Cell viability was assessed after 48 h. […]
Proliferation of the different Ba/F3-gp130-IL-6R cell lines in response to IL-6 and Hyper-IL-6 and of Ba/F3-gp130 cells in response to IL-6 and the two different recombinant sIL-6R variants was determined using the Cell Titer Blue Cell viability assay reagent (Promega, Karlsruhe, Germany), following the manufacturer’s protocol as described previously. Values were measured in triplicates per experiment, and relative light units (RLU) obtained after 60 min were normalized by subtraction of control values obtained after 0 min. The maximum proliferation was set to 100%, and all other values were calculated accordingly.

T1 sequence (P78536 18-477): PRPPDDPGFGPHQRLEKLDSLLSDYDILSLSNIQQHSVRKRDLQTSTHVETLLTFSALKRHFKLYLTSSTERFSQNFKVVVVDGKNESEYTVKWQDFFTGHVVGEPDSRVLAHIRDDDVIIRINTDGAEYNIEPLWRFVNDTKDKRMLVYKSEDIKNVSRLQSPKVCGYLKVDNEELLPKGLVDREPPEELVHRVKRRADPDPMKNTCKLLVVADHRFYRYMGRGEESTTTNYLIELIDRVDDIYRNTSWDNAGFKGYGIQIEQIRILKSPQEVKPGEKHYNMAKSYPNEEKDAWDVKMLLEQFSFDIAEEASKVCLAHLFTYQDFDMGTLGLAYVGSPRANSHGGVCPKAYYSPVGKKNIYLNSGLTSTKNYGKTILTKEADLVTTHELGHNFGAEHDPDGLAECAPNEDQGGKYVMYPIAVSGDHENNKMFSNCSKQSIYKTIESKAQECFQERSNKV

Row | Molecule | cleavage by recombinant ADAM17, in words [1] | remaining at 16 h [2] | sIL-6R in supernatant (ELISA), Figure 9D, mean [3] | sIL-6R in supernatant (ELISA), Figure 9B, mean [4] | IL-6 trans-signaling activity, in words [5]
1 | CC[C@H](C)[C@H](NC(=O)[C@@H](N)CC(N)=O)C(=O)N[C@@H](CC(C)C)C(=O)N[C@@H](Cc1ccccc1)C(=O)N[C@@H](CCCNC(=N)N)C(=O)N[C@@H](CC(=O)O)C(=O)N[C@@H](CO)C(=O)N[C@@H](C)C(=O)N[C@@H](CC(=O)N[C@@H]1O[C@H](CO)[C@@H](O[C@@H]2O[C@H](CO)[C@@H](O[C@@H]3O[C@H](CO[C@H]4O[C@H](CO)[C@@H](O)[C@H](O)[C@@H]4O[C@@H]4O[C@H](CO)[C@@H](O[C@@H]5O[C@H](CO)[C@H](O)[C@H](O)[C@H]5O)[C@H](O)[C@H]4NC(C)=O)[C@@H](O)[C@H](O[C@H]4O[C@H](CO)[C@@H](O)[C@H](O)[C@@H]4O[C@@H]4O[C@H](CO)[C@@H](O[C@@H]5O[C@H](CO)[C@H](O)[C@H](O)[C@H]5O)[C@H](O)[C@H]4NC(C)=O)[C@@H]3O)[C@H](O)[C@H]2NC(C)=O)[C@H](O)[C@H]1NC(C)=O)C(=O)N[C@@H](C)C(=O)N[C@H](C(=O)N[C@@H](CO)C(=O)N[C@@H](CC(C)C)C(=O)N1CCC[C@H]1C(=O)N[C@H](C(=O)N[C@@H](CCC(N)=O)C(=O)N[C@@H](C)C(=O)N[C@@H](CO)C(=O)N[C@@H](CO)C(=O)N[C@@H](CO)C(=O)N[C@H](C(=O)N1CCC[C@H]1C(=O)N[C@@H](CC(C)C)C(=O)N1CCC[C@H]1C(=O)O)C(C)C)C(C)C)[C@@H](C)O [6(QA)] (H-NILFRDSAD(X1)ATSLPVQASSSVPLP-OH; N-terminus and C-terminus assumed) | did not alter processing | 2.44% |  |  | 
2 | CC[C@H](C)[C@H](NC(=O)[C@@H](N)CC(N)=O)C(=O)N[C@@H](CC(C)C)C(=O)N[C@@H](Cc1ccccc1)C(=O)N[C@@H](CCCNC(=N)N)C(=O)N[C@@H](CC(=O)O)C(=O)N[C@@H](CO)C(=O)N[C@@H](C)C(=O)N[C@@H](CC(=O)N[C@@H]1O[C@H](CO)[C@@H](O[C@@H]2O[C@H](CO)[C@@H](O[C@@H]3O[C@H](CO[C@H]4O[C@H](CO)[C@@H](O)[C@H](O)[C@@H]4O[C@@H]4O[C@H](CO)[C@@H](O[C@@H]5O[C@H](CO)[C@H](O)[C@H](O)[C@H]5O)[C@H](O)[C@H]4NC(C)=O)[C@@H](O)[C@H](O[C@H]4O[C@H](CO)[C@@H](O)[C@H](O)[C@@H]4O[C@@H]4O[C@H](CO)[C@@H](O[C@@H]5O[C@H](CO)[C@H](O)[C@H](O)[C@H]5O)[C@H](O)[C@H]4NC(C)=O)[C@@H]3O)[C@H](O)[C@H]2NC(C)=O)[C@H](O)[C@H]1NC(C)=O)C(=O)N[C@@H](C)C(=O)N[C@H](C(=O)N[C@@H](CO)C(=O)N[C@@H](CC(C)C)C(=O)N1CCC[C@H]1C(=O)N[C@H](C(=O)N[C@@H](CCC(N)=O)C(=O)N[C@@H](CC(=O)O)C(=O)N[C@@H](CO)C(=O)N[C@@H](CO)C(=O)N[C@@H](CO)C(=O)N[C@H](C(=O)N1CCC[C@H]1C(=O)N[C@@H](CC(C)C)C(=O)N1CCC[C@H]1C(=O)O)C(C)C)C(C)C)[C@@H](C)O[C@H]1O[C@H](CO)[C@H](O)[C@H](O)[C@H]1NC(C)=O [9(QD)] (H-NILFRDSAD(X1)AT(αGalNAc)SLPVQDSSSVPLP-OH; N-terminus and C-terminus assumed) | again blocked | 95.6% |  |  | 
3 | CNC(=O)[C@@H](NC(=O)[C@H](CCCc1ccccc1)[C@H](C)N(O)C=O)C(C)(C)C [GI] |  |  | 0 | 48715.8 | 
4 | CCCCCCCCCCCCCC(=O)O[C@@H]1[C@@H](C)[C@@]2(O)[C@@H](C=C(CO)C[C@]3(O)C(=O)C(C)=C[C@@H]23)[C@@H]2C(C)(C)[C@]12OC(C)=O [PMA, phorbol-12-myristate-13-acetate] |  |  | 0 | 71566.4 | 
5 | sIL-6R: recombinant soluble IL-6 receptor expressed in HEK293-EBNA cells (protein, UniProt P08887 20-365, looked up, extracellular domain recombinant, recombinant soluble IL-6 receptor expressed in HEK293-EBNA cells) extracellular domain: LAPRRCPAQEVARGVLTSLPGDSVTLTCPGVEPEDNATVHWVLRKPAAGSHPSRWAGMGRRLLLRSVQLHDSGNYSCYRAGRPAGTVHLLVDVPPEEPQLSCFRKSPLSNVVCEWGPRSTPSLTTKAVLLVRKFQNSPAEDFQEPCQYSQESQKFSCQLAVPEGDSSFYIVSMCVASSVGSKFSKTQTFQGCGILQPDPPANITVTAVARNPRWLSVTWQDPHSWNSSFYRLRFELRYRAERSKTFTTWMVKDLQHHCVIHDAWSGLRHVVQLRAQEEFGQGEWSEWSPEAMGTPWTESRSPPAENEVSTPMQALTTNKDDDNILFRDSANATSLPVQDSSSVPLP |  |  |  |  | biologically active
